Earlier results as cited in patent US20230270709A1, “ANTIVIRAL PHARMACEUTICAL COMPOSITION FOR TOPICAL ADMINISTRATION” (Christian-Albrechts-Universitat Zu Kiel, priority 2020, published 2023).
Counter-ions that a name gives are not always drawn.

Tests used:
SARS-CoV-2 = conditions: Hoffmann et al. 2020
[1] = molecular target: transmembrane protease, serine 2 (TMPRSS2) (Homo sapiens, UniProt O15393); conditions: Zhou et al., Antiviral Research 116 (2015)
SARS-CoV = conditions: pathogenic animal model for SARS-CoV infection; Zhou et al. 2015

Chain of transmembrane protease, serine 2 (TMPRSS2) (O15393 whole entry): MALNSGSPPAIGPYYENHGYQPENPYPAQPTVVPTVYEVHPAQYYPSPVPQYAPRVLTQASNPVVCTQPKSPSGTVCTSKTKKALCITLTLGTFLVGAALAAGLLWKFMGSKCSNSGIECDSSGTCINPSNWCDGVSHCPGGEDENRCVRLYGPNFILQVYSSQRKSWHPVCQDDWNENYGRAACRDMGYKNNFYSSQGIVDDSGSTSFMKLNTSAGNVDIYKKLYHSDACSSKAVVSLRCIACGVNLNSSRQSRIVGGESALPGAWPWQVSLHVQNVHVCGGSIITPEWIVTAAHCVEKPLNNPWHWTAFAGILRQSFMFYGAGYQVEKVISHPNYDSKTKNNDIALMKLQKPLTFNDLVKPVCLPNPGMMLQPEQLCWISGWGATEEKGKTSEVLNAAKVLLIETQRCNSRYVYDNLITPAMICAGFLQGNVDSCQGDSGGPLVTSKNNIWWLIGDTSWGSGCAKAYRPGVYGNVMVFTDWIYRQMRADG

| Compound | effect on SARS-CoV-2 infections of lung cells (SARS-CoV-2) | inhibition of TMPRSS2 [1] | antiviral activity in animal model (SARS-CoV) |
| --- | --- | --- | --- |
| CN(C)C(=O)COC(=O)Cc1ccc(OC(=O)c2ccc(NC(=N)N)cc2)cc1 [camostat mesylate] | reduce SARS-CoV-2 infections of lung cells |  |  |
| CN(C)C(=O)COC(=O)Cc1ccc(OC(=O)c2ccc(NC(=N)N)cc2)cc1 [camostat] |  | inhibit | display antiviral activity |
| N=C(N)c1ccc2cc(OC(=O)c3ccc(N=C(N)N)cc3)ccc2c1 [nafamostat mesylate] | reduce SARS-CoV-2 infections of lung cells |  |  |
